Laboratory results as given in ChEMBL document CHEMBL1201862, “PubChem BioAssay data set” (2004).
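Protocol summary: plate cells (96-well), add compound at 5 concentrations, incubate 48 h, interpolate endpoints linearly. Abbreviation: GI50, concentration required for 50% inhibition of growth.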 Activity calls are given as the source filed them. No stated cut-off is given here; in the data, active = GI50 up to about 1.1 µM and inactive = higher.

What was measured:
Experiment in all cases: growth of human tumour cells (NCI), 48 h
SF-539 = test system: SF-539
SK-OV-3 = test system: SK-OV-3
T47D = test system: T47D
SF-295 = test system: SF-295
A549 = test system: A549
UO-31 = test system: UO-31
OVCAR-5 = test system: OVCAR-5
SN12C = test system: SN12C
NCI/ADR-RES = test system: NCI/ADR-RES
U-251 = test system: U-251
BT-549 = test system: BT-549
Malme-3M = test system: Malme-3M
NCI-H23 = test system: NCI-H23
A498 = test system: A498
NCI-H522 = test system: NCI-H522
SR = test system: SR
Hs-578T = test system: Hs-578T
HT-29 = test system: HT-29
LOX IMVI = test system: LOX IMVI
RXF 393 = test system: RXF 393

Row | SMILES | GI50 (SF-539) | GI50 (SK-OV-3) | GI50 (T47D) | GI50 (SF-295) | GI50 (A549) | GI50 (UO-31) | GI50 (OVCAR-5) | GI50 (SN12C) | GI50 (NCI/ADR-RES) | GI50 (U-251) | GI50 (BT-549) | GI50 (Malme-3M) | GI50 (NCI-H23) | GI50 (A498) | GI50 (NCI-H522) | GI50 (SR) | GI50 (Hs-578T) | GI50 (HT-29) | GI50 (LOX IMVI) | GI50 (RXF 393)
1 | C=CCOC(=O)CCCCCCCCCCCCCCCOC(=O)C1=C(CCC[C@@H](C)O[Si](C)(C)C(C)(C)C)NC(=O)N2[C@H](CC3(CC/C=C\[C@H](CC)O[Si](C(C)C)(C(C)C)C(C)C)OCCO3)CC[C@H]12 | 67.3 µM (inactive) | > 100 µM (inactive) | > 100 µM (inactive) | > 100 µM (inactive) | > 100 µM (inactive) | > 100 µM (inactive) | > 100 µM (inactive) | > 100 µM (inactive) | > 100 µM (inactive) | > 100 µM (inactive) | > 100 µM (inactive) | > 100 µM (inactive) | > 100 µM (inactive) | > 100 µM (inactive) | > 100 µM (inactive) | – | – | – | – | –
2 | C=C(CCOC)CCC1CCCCC(=C)[C@H]1OC(C)=O (stereo partly specified) | > 100 µM (inactive) | > 100 µM (inactive) | > 100 µM (inactive) | > 100 µM (inactive) | > 100 µM (inactive) | > 100 µM (inactive) | > 100 µM (inactive) | > 100 µM (inactive) | 78.3 µM (inactive) | > 100 µM (inactive) | – | – | 93.8 µM (inactive) | > 100 µM (inactive) | 41.8 µM (inactive) | 52.5 µM (inactive) | > 100 µM (inactive) | > 100 µM (inactive) | > 100 µM (inactive) | –
3 | N#CC12CC(C=O)=C(N)C1(C#N)CC(C=O)=C2N (stereo unspecified) | 81.8 µM (inactive) | > 100 µM (inactive) | 37.8 µM (inactive) | > 100 µM (inactive) | > 100 µM (inactive) | 70.1 µM (inactive) | > 100 µM (inactive) | 74.6 µM (inactive) | > 100 µM (inactive) | 55.3 µM (inactive) | – | 50.8 µM (inactive) | 28.3 µM (inactive) | > 100 µM (inactive) | > 100 µM (inactive) | 37.7 µM (inactive) | 34 µM (inactive) | > 100 µM (inactive) | 34.4 µM (inactive) | 41.9 µM (inactive)
4 | CSc1nc(Cl)c2c(n1)Sc1nc3ccccc3n1C2O (stereo unspecified) | 1.83 µM (inactive) | 47.9 µM (inactive) | 15.3 µM (inactive) | 21.3 µM (inactive) | 7.38 µM (inactive) | 3.44 µM (inactive) | 4.92 µM (inactive) | 4.85 µM (inactive) | 3.27 µM (inactive) | 3.67 µM (inactive) | 4.73 µM (inactive) | 4.91 µM (inactive) | 5.65 µM (inactive) | > 79.1 µM (inactive) | 2.73 µM (inactive) | – | 5.36 µM (inactive) | 3.52 µM (inactive) | 0.861 µM (active) | 1.58 µM (inactive)
5 | Cc1nnc2n1N=C(c1cc(F)c(Cl)cc1Cl)/C(=C/c1ccc(Cl)cc1)S2 | 25.9 µM (inactive) | 43.4 µM (inactive) | 34 µM (inactive) | 13.4 µM (inactive) | 18 µM (inactive) | 11.3 µM (inactive) | 6.46 µM (inactive) | 14.9 µM (inactive) | 11.8 µM (inactive) | 17 µM (inactive) | 18.7 µM (inactive) | 20.6 µM (inactive) | 14.5 µM (inactive) | 19.1 µM (inactive) | 20.7 µM (inactive) | – | 43.1 µM (inactive) | 11.7 µM (inactive) | 9.33 µM (inactive) | 17.2 µM (inactive)
6 | CC1(C)OC[C@@H](O)[C@H](C#N)CO1 | > 100 µM (inactive) | > 100 µM (inactive) | > 100 µM (inactive) | > 100 µM (inactive) | > 100 µM (inactive) | > 100 µM (inactive) | > 100 µM (inactive) | > 100 µM (inactive) | – | > 100 µM (inactive) | > 100 µM (inactive) | > 100 µM (inactive) | > 100 µM (inactive) | > 100 µM (inactive) | > 100 µM (inactive) | > 100 µM (inactive) | > 100 µM (inactive) | > 100 µM (inactive) | > 100 µM (inactive) | > 100 µM (inactive)
7 | COc1cc2c(cc1OC)C1C3CCCCC3CCN1CC2 (stereo unspecified) | > 100 µM (inactive) | > 100 µM (inactive) | > 100 µM (inactive) | 83.8 µM (inactive) | 91.2 µM (inactive) | – | > 100 µM (inactive) | 62.7 µM (inactive) | > 100 µM (inactive) | > 100 µM (inactive) | – | > 100 µM (inactive) | > 100 µM (inactive) | > 100 µM (inactive) | > 100 µM (inactive) | > 100 µM (inactive) | > 100 µM (inactive) | 88.9 µM (inactive) | > 100 µM (inactive) | 27 µM (inactive)
8 | Nc1nc(NNc2ccc(Cl)c(Cl)c2)cc(=O)[nH]1 | 99.1 µM (inactive) | – | – | 54.1 µM (inactive) | 45.7 µM (inactive) | 29.9 µM (inactive) | 43.4 µM (inactive) | 38.1 µM (inactive) | 47.5 µM (inactive) | 24.2 µM (inactive) | 33.7 µM (inactive) | 46.9 µM (inactive) | 34 µM (inactive) | > 100 µM (inactive) | – | 31.7 µM (inactive) | 30.5 µM (inactive) | 34.4 µM (inactive) | 17.3 µM (inactive) | 25.5 µM (inactive)
9 | COC(=O)C(Cc1c[nH]c2ccccc12)NC(=O)C(Cc1c[nH]cn1)NC(=O)C1CCC(=O)N1C(=O)OCc1ccccc1 (stereo unspecified) | – | – | 5.13 µM (inactive) | – | > 100 µM (inactive) | > 100 µM (inactive) | > 100 µM (inactive) | – | – | > 100 µM (inactive) | > 100 µM (inactive) | > 100 µM (inactive) | > 100 µM (inactive) | 7.35 µM (inactive) | – | > 100 µM (inactive) | > 100 µM (inactive) | > 100 µM (inactive) | – | > 100 µM (inactive)
10 | C=CCn1c(-c2ccc([N+](=O)[O-])cc2)cs/c1=N\C(P(=O)(O)O)P(=O)(O)O | > 100 µM (inactive) | > 100 µM (inactive) | – | > 100 µM (inactive) | > 100 µM (inactive) | > 100 µM (inactive) | > 100 µM (inactive) | – | > 100 µM (inactive) | > 100 µM (inactive) | > 100 µM (inactive) | > 100 µM (inactive) | > 100 µM (inactive) | > 100 µM (inactive) | > 100 µM (inactive) | > 100 µM (inactive) | > 100 µM (inactive) | > 100 µM (inactive) | > 100 µM (inactive) | > 100 µM (inactive)
11 | COC(=O)Cc1c(C2C(CC(=O)OC)c3ccccc3N2C2OC(CO)C(O)C(O)C2O)[nH]c2ccccc12 (stereo unspecified) | – | > 100 µM (inactive) | – | > 100 µM (inactive) | > 100 µM (inactive) | > 100 µM (inactive) | > 100 µM (inactive) | > 100 µM (inactive) | – | > 100 µM (inactive) | > 100 µM (inactive) | > 100 µM (inactive) | > 100 µM (inactive) | > 100 µM (inactive) | > 100 µM (inactive) | > 100 µM (inactive) | – | > 100 µM (inactive) | – | –
12 | O=Cc1cc(O)c(O)c(/C=N/n2c3ccccc3c3ccccc32)c1 | 6.38 µM (inactive) | 6.55 µM (inactive) | 5.64 µM (inactive) | 8.69 µM (inactive) | 12.8 µM (inactive) | 5.58 µM (inactive) | 17.9 µM (inactive) | 4.56 µM (inactive) | – | 6.14 µM (inactive) | 2.31 µM (inactive) | 12.4 µM (inactive) | 8.09 µM (inactive) | 15.9 µM (inactive) | 2.64 µM (inactive) | 2.84 µM (inactive) | 19.3 µM (inactive) | 18.7 µM (inactive) | 8.49 µM (inactive) | 5.57 µM (inactive)
13 | FC(F)(Sc1ncccn1)c1nc2ccccc2o1 | > 100 µM (inactive) | > 100 µM (inactive) | > 100 µM (inactive) | > 100 µM (inactive) | > 100 µM (inactive) | 99.3 µM (inactive) | > 100 µM (inactive) | > 100 µM (inactive) | > 100 µM (inactive) | 55.5 µM (inactive) | > 100 µM (inactive) | > 100 µM (inactive) | > 100 µM (inactive) | > 100 µM (inactive) | > 100 µM (inactive) | 37.8 µM (inactive) | – | > 100 µM (inactive) | – | 79.3 µM (inactive)
14 | CC(O)(c1ccccc1)c1nccc2ccccc12 (stereo unspecified) | – | 96.6 µM (inactive) | 68.1 µM (inactive) | 55 µM (inactive) | 87.3 µM (inactive) | 51.3 µM (inactive) | 67.1 µM (inactive) | > 100 µM (inactive) | 43.7 µM (inactive) | 45.5 µM (inactive) | 56.1 µM (inactive) | 64.1 µM (inactive) | > 100 µM (inactive) | 71.4 µM (inactive) | 50.5 µM (inactive) | – | 45.8 µM (inactive) | 74.3 µM (inactive) | 75.9 µM (inactive) | > 100 µM (inactive)
15 | O=c1[nH]c(=O)n(COCc2ccccc2)cc1Nc1ccc(Br)cc1 | – | – | – | 44.5 µM (inactive) | > 100 µM (inactive) | > 100 µM (inactive) | > 100 µM (inactive) | > 100 µM (inactive) | > 100 µM (inactive) | > 100 µM (inactive) | > 100 µM (inactive) | – | > 100 µM (inactive) | > 100 µM (inactive) | – | > 100 µM (inactive) | > 100 µM (inactive) | > 100 µM (inactive) | > 100 µM (inactive) | 43.2 µM (inactive)
16 | CC12CCC(C(=O)OC1=O)C2(C)C (stereo unspecified) | > 100 µM (inactive) | > 100 µM (inactive) | > 100 µM (inactive) | > 100 µM (inactive) | – | > 100 µM (inactive) | > 100 µM (inactive) | > 100 µM (inactive) | > 100 µM (inactive) | > 100 µM (inactive) | – | > 100 µM (inactive) | 1.67 µM (inactive) | > 100 µM (inactive) | > 100 µM (inactive) | 0.628 µM (active) | > 100 µM (inactive) | > 100 µM (inactive) | > 100 µM (inactive) | > 100 µM (inactive)
